Converted amounts (≈) assume the structure as drawn. The source made the active and inactive calls. The calls are words filed in the database; no cut-off is given here.
Legend:
Homo sapiens [1] = species: Homo sapiens; test: Inhibition of linezolid-induced hematological events in orthopedic implant infection patient assessed as thrombocytopenia incidence relative to control; assay type: functional; parameters: scale not given: the % may be the effect or the level left
Homo sapiens [2] = species: Homo sapiens; test: Inhibition of linezolid-induced hematological events in orthopedic implant infection patient assessed as reduction of anemia incidence relative to control; assay type: functional, organism-based
Homo sapiens [3] = test: Inhibition of linezolid-induced hematological events in orthopedic implant infection patient assessed as effect on anemia at 200 mg, po once daily; assay type: functional, organism-based
Homo sapiens [4] = species: Homo sapiens; test: Inhibition of linezolid-induced hematological events in bone infection patient assessed as rate of anemia at 125 mg relative to control; assay type: functional; parameters: scale not given: the % may be the effect or the level left
Homo sapiens [5] = species: Homo sapiens; test: Inhibition of linezolid-induced hematological events in bone infection patient assessed as rate of thrombocytopenia at 125 mg relative to control; assay type: functional; parameters: scale not given: the % may be the effect or the level left
Homo sapiens [6] = test: Inhibition of linezolid-induced hematological events in orthopedic implant infection patient assessed as effect on thrombocytopenia at 200 mg, po once daily; assay type: functional, organism-based
Staphylococcus = test: Antibacterial activity against coagulase-negative Staphylococcus; assay type: functional
[7] = AUC in human at 600 mg administered every 12 hrs measured after 24 hrs; assay type: ADME, organism-based; parameters: time < 24 hr, dose 600 mg; conditions: plasma
Staphylococcus aureus = test: Antibacterial activity against Staphylococcus aureus; assay type: functional
Enterococcus = test: Antibacterial activity against Enterococcus; assay type: functional
[8] = test system: mitochondrial protein synthesis; test: Toxicity in rat heart mitochondria assessed as inhibition of mitochondrial protein synthesis; conditions: pooled result: one value given for 4 cell lines, strains, targets or settings
[9] = Drug level at steady state in human serum at 600 mg administered every 12 hrs; assay type: ADME, cell-free; conditions: read-out: Drug uptake
Streptococcus = test: Antibacterial activity against Streptococcus; assay type: functional

SMILES: CO[C@H]1/C=C/O[C@@]2(C)Oc3c(C)c(O)c4c(O)c(c(/C=N/N5CCN(C)CC5)c(O)c4c3C2=O)NC(=O)/C(C)=C\C=C\[C@H](C)[C@H](O)[C@@H](C)[C@@H](O)[C@@H](C)[C@H](OC(C)=O)[C@@H]1C [RIFAMPIN]
- Activity (Homo sapiens [1]): 5.8%
- Activity (Homo sapiens [2]): Active

SMILES: Cc1ncc(CO)c(CO)c1O [PYRIDOXINE]
- Activity (Homo sapiens [3]): inactive
- Activity (Homo sapiens [4]): 25%
- Activity (Homo sapiens [5]): 45.8%
- Activity (Homo sapiens [6]): inactive

SMILES: CC(=O)NC[C@H]1CN(c2ccc(N3CCOCC3)c(F)c2)C(=O)O1 [LINEZOLID]
- MIC (Staphylococcus): 0.5 µg/mL (≈ 1.48 µM)
- AUC at 24 h [7]: 260 µg·h/mL
- MIC (Staphylococcus aureus): 0.5 µg/mL (≈ 1.48 µM)
- MIC (Enterococcus): 0.5 µg/mL (≈ 1.48 µM)
- IC50 [8]: 3.37 µg/mL (≈ 9.99 µM)
- concentration at 12 h [9]: 6000 ng/mL
- MIC (Streptococcus): 0.5 µg/mL (≈ 1.48 µM)
